For experiment [1], the target named is T1, human ERα ligand binding domain (Homo sapiens, UniProt P03372).
T1 sequence (P03372 311-547 limits assumed): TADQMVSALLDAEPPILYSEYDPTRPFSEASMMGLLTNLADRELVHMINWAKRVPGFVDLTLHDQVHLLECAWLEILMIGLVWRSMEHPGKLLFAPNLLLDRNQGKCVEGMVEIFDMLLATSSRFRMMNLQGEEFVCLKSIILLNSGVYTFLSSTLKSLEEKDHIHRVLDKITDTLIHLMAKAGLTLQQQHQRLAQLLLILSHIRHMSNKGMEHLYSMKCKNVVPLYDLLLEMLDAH
Put plainly: Competitive fluorometric receptor-binding assay, ERα. To be noted: estradiol = 100 %; fluorescence polarisation, coumestrol tracer. How it is done:
(§1) Relative binding affinities were determined by a competitive fluorometric binding assay, as described previously. Briefly, 40 nM fluorescence tracer (coumestrol, Sigma-Aldrich) and 0.8 μM purified human ERα or ERβ ligand binding domain were diluted in 100 mM potassium phosphate buffer (pH 7.4), containing 100 μg/ml bovine γ-globulin (Sigma-Aldrich), and an equal volume of test compound was added. Incubation was for 2 h at 25 °C. The fluorescence polarisation values were measured. […] The values given are the average ± range of two independent determinations. IC50 values were calculated using a published formula [29].
For orientation: In fluorescence polarisation assays a small probe gives low polarisation when free and higher when bound to something large.

Experiment [2] deals with human ERβ ligand binding domain (Homo sapiens, UniProt Q92731). As to the kind of experiment: Competitive fluorometric receptor-binding assay, ERβ. To be noted: estradiol = 100 %; fluorescence polarisation, coumestrol tracer. How it is done: as §1
Chain of human ERβ ligand binding domain (Q92731 264-498 limits assumed): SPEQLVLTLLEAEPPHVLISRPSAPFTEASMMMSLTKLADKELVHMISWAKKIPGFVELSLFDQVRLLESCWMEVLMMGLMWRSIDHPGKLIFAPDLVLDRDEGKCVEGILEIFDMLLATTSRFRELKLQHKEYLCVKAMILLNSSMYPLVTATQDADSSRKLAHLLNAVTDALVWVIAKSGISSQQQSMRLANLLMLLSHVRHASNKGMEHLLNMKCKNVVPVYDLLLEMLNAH
For another experiment, the target named is T2, ERα (Homo sapiens, UniProt P03372).
T2 construct: expressed in transfected cells; host or cells: HEK 293 T
T2 sequence (P03372 1-595): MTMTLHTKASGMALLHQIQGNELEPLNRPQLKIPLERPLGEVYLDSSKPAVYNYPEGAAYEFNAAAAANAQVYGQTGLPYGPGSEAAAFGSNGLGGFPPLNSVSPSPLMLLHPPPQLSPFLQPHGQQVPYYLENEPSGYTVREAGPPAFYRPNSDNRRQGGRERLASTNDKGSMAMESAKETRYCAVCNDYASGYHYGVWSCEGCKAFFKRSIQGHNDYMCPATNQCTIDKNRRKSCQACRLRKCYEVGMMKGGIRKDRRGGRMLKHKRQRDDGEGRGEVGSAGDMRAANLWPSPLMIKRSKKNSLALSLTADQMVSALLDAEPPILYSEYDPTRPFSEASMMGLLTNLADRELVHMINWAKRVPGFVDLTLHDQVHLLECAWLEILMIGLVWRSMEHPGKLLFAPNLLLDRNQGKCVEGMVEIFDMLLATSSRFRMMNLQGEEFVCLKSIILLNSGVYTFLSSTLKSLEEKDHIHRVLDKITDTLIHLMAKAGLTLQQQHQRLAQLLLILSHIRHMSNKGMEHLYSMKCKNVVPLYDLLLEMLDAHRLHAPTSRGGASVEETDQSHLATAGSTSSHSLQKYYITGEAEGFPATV
Put plainly: 3×ERE-luciferase reporter gene assay in HEK 293 T cells, ERα. It counts as cell-based. How it is done:
(§2) Cells in phenol red-free DMEM with 10 % FBS were plated. […] The next day, the cells were treated with increasing doses of ER ligands diluted in phenol red-free DMEM with 10 % FBS. After 24 h, luciferase activity was measured using the dual-luciferase reporter assay system (Promega, Fitchburg, USA) performed according to the manufacturer’s protocol.
A general note: A reporter such as luciferase makes a cellular process visible.

Another experiment has as its target T3, ERβ (Homo sapiens, UniProt Q92731).
T3 construct: expressed in transfected cells; host or cells: HEK 293 T
As to the kind of experiment: 3×ERE-luciferase reporter gene assay in HEK 293 T cells, ERβ. Format: cell-based. How it is done:
as §2

The mark [3] stands for this setting: percentage of 10^-8 M 17β-estradiol, mean ± SD.

These results are taken from article PMC4910235, “Selenophene and thiophene-core estrogen receptor ligands that inhibit motility and development of parasitic stages of Haemonchus contortus” (Parasites & Vectors, 2016).

Usually IC50 stands for the concentration needed to halve the response being measured. The EC50 is the concentration at which the effect is half-maximal.

Entries after “also recorded” stand apart in the source; their conditions may differ.

T3 sequence (Q92731 whole entry): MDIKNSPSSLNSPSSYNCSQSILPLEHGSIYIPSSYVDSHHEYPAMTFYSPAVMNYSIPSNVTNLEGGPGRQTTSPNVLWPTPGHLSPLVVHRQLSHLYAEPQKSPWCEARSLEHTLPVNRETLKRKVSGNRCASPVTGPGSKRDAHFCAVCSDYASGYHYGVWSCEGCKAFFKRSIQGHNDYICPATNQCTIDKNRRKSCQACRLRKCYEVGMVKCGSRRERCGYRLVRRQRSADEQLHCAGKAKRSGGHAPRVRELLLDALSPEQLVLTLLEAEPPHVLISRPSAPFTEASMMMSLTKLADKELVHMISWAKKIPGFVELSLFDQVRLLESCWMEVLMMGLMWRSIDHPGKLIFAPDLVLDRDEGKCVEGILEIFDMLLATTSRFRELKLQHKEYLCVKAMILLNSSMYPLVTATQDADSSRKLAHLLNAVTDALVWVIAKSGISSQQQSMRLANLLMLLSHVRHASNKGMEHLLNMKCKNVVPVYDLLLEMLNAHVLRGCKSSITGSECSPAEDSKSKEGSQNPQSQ

`Oc1ccc(-c2ccc(-c3ccc(O)cc3Cl)[se]2)c(Cl)c1` [WZY-2]: the “relative binding affinity (RBA) ERα” value in experiment [1] was 6.11%. Further, in experiment [2], the “relative binding affinity (RBA) ERβ” value was 12.7%. Besides, the IC50 on ERα (against 10^-8 M E2, read-out: Antagonist mode ERα IC50) was greater than 10 µM; on ERβ (against 10^-8 M E2, read-out: Antagonist mode ERβ IC50), 3.02 µM. Further, the EC50 on ERα (doses up to 10^-5 M, read-out: Agonist mode ERα EC50) is greater than 10 µM; at ERβ (doses up to 10^-5 M, read-out: Agonist mode ERβ EC50), greater than 10 µM. Moreover, at ERα (setting [3]), the “Agonist mode ERα Efficacy (%E2)” value is -21 ± 13 %E2. Besides, the “Antagonist mode ERα Efficacy (%E2)” value at ERα (setting [3]) was 73 ± 8 %E2. Further, the “profile on ERβ (agonist/antagonist)” value on ERβ (luciferase reporter) is on record as “antagonist”. Also, the “Antagonist mode ERβ Eff (%E2)” value on ERβ (setting [3]) came out at 13.9 ± 5.3 %E2.
Regarding `Cc1cc(O)ccc1-c1ccc(-c2ccc(O)cc2F)s1` [MJ-22], on ERα (luciferase reporter), the “profile on ERα (agonist/antagonist)” value is reported as “super-agonist; also recorded: agonists”.
